# Test results as given in patent US8232406B2, “c-MET protein kinase inhibitors” (Vertex Pharmaceuticals Incorporated, priority 2006, dated 2012).
# Target: c-MET (Homo sapiens, UniProt P08581)
# Experiment: Ki determination for the inhibition of c-MET (standard radiometric 33P-ATP kinase assay, polyE4Y substrate)
# Assay type: biochemical
# Conditions: 1.0 nM c-Met, 35 μM ATP, 0.5 mg/mL polyE4Y, 20 min; competitive tight-binding fit
# How it was run: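 Ki obtained by fitting data to competitive tight-binding inhibition kinetics. c-Met at 1.0 nM phosphorylated polyE4Y (0.5 mg/mL) with 35 μM 33P-ATP for 20 min in pH 7.5 HEPES buffer with MgCl2, NaCl, BSA and DTT. Incorporated label measured by scintillation after TCA precipitation on filters.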
# Sequence of c-MET (P08581 25-1390): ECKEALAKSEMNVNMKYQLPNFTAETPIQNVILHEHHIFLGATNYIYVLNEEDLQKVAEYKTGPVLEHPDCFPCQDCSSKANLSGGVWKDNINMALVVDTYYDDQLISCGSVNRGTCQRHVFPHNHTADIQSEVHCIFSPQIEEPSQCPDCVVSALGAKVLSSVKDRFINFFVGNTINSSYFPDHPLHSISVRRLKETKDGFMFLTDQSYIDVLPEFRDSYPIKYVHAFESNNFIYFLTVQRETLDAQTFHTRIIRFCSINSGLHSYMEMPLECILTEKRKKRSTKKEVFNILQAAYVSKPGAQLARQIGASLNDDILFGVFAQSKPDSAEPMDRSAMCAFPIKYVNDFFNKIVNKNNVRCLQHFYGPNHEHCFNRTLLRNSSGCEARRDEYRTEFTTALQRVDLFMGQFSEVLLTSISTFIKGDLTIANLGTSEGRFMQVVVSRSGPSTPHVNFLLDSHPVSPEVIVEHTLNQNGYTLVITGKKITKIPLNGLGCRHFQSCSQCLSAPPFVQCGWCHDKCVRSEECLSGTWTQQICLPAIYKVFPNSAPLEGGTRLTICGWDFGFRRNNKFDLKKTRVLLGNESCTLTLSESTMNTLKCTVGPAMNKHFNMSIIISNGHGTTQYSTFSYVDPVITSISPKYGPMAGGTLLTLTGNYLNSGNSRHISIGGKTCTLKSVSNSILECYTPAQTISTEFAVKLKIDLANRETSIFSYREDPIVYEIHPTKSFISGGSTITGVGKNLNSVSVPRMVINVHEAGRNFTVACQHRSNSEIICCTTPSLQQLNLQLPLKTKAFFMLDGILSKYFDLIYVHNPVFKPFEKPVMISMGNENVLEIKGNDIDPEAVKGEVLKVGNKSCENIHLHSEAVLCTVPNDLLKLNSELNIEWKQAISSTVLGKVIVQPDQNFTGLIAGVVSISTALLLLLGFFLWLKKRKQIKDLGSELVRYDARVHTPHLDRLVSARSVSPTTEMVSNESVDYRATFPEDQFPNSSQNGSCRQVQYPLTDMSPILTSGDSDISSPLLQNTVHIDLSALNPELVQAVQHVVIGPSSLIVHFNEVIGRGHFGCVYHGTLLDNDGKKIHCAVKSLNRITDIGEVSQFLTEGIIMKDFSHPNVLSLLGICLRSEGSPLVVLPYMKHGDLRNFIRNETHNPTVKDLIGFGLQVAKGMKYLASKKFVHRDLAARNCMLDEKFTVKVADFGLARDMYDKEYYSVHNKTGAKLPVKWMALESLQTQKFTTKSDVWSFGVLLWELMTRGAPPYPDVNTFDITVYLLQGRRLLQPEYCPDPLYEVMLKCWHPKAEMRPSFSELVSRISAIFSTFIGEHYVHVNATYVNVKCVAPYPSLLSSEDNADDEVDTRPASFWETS
row,Structure (SMILES),Ki [nM]
1,CCNC(=O)Nc1nc2cc(OC)c(-c3cnc(N)c(-c4nnnn4-c4cccc(F)c4F)n3)cc2[nH]1 [I-A-55],100 to 1000
2,CN(C)CCCN(C)S(=O)(=O)c1ccc(-c2cnc(N)c(-c3nnnn3-c3cccc(F)c3F)c2)cc1 [I-A-159],≤ 100
3,Nc1ncc(-c2cccnc2)cc1-c1nnnn1-c1cccc(Cl)c1Cl [I-A-83],100 to 1000
4,Nc1ncc(-c2cccc3c2OCO3)cc1-c1nnnn1-c1cccc(F)c1F [I-A-305],≤ 100
5,COc1cc2nc(N)[nH]c2cc1-c1cnc(N)c(-c2nnnn2-c2cccc(F)c2F)n1 [I-A-54],≤ 100
6,Nc1ncc(-c2ccc(CNC3CCC3)cc2)cc1-c1nnnn1-c1cccc(F)c1F [I-A-151],≤ 100
7,Nc1ncc(-c2ccc(CN3CCOCC3)cc2)nc1-c1nnnn1-c1cccc(F)c1F [I-A-51],≤ 100
8,Nc1ncc(-c2ccc(CN3CCCC3)cc2)cc1-c1nnnn1-c1cccc(F)c1Cl [I-A-386],100 to 1000
9,CN(C)CCCNC(=O)c1ccc(-c2cnc(N)c(-c3nnnn3-c3cccc(F)c3F)c2)cc1 [I-A-136],≤ 100
10,Nc1ccc(-c2cnc(N)c(-c3nnnn3-c3cccc(Cl)c3Cl)c2)cc1 [I-A-86],≤ 100
11,Nc1ncc(-c2ccccc2)cc1-c1nncn1-c1cccc(Cl)c1Cl [I-A-74],100 to 1000
12,Nc1ncc(-c2ccc(CN3CCC(CO)CC3)cc2)cc1-c1nnnn1-c1cccc(Cl)c1Cl [I-A-96],≤ 100
13,CN(C)c1ccc(-c2cnc(N)c(-c3nncn3-c3cccc(Cl)c3Cl)c2)cc1 [I-A-72],100 to 1000
14,Nc1ncc(-c2ccc(C3CCCN3)cc2)cc1-c1nnnn1-c1cccc(F)c1F (stereo not drawn) [I-A-258],≤ 100
15,CN1CCN(c2ccc(-c3cnc(N)c(-c4nncn4-c4cccc(F)c4F)c3)cc2)CC1 [I-A-41],100 to 1000
16,Nc1ncc(-c2ccc(Cl)cc2)cc1-c1nncn1-c1cccc(F)c1F [I-A-114],100 to 1000
17,Nc1ncc(-c2ccc(NC(=O)CN3CCCC3)cc2)cc1-c1nnnn1-c1cccc(F)c1F [I-A-184],≤ 100
18,N#Cc1cccc(-c2cnc(N)c(-c3nnnn3-c3cccc(F)c3F)c2)c1 [I-A-228],100 to 1000
19,Nc1ncc(-c2ccc(S(N)(=O)=O)s2)cc1-c1nnnn1-c1cccc(F)c1F [I-A-187],≤ 100
20,CC(c1ccc(-c2cnc(N)c(-c3nnnn3-c3cccc(F)c3F)c2)s1)N1CCCC1 (stereo not drawn) [I-A-262],≤ 100
21,Nc1ncc(-c2cccc(NC(=O)NC3CCCC3)c2)cc1-c1nnnn1-c1cccc(F)c1F [I-A-329],≤ 100
22,NC(=O)Nc1ccc(-c2cnc(N)c(-c3nnnn3-c3cccc(F)c3F)c2)cc1 [I-A-183],≤ 100
23,N#Cc1ccc(-c2cnc(N)c(-c3nncn3-c3cccc(F)c3F)c2)cc1 [I-A-113],100 to 1000

row,Structure (SMILES),Ki [nM]
1,COc1ccc(-c2cnc(N)c(-c3nnnn3-c3cccc(F)c3F)c2)cc1 [I-A-222],≤ 100
2,Nc1ncc(-c2ccccc2)cc1-c1nnnn1-c1cccc(F)c1F [I-A-233],≤ 100
3,Nc1ncc(-c2ccc(NC(=O)c3ccncc3)cc2)cc1-c1nnnn1-c1cccc(F)c1F [I-A-280],≤ 100
4,COC(=O)Nc1ccc(-c2cnc(N)c(-c3nnnn3-c3cccc(F)c3F)c2)cc1 [I-A-352],100 to 1000
5,Nc1ncc(-c2ccc(CN3CC[C@@H](O)C3)cc2)cc1-c1nnnn1-c1cccc(Cl)c1Cl [I-A-119],≤ 100
6,Nc1ncc(-c2cccnc2)cc1-c1nnnn1-c1cccc(F)c1F [I-A-20],100 to 1000
7,CSc1ccccc1-c1cnc(N)c(-c2nnnn2-c2cccc(F)c2F)c1 [I-A-252],100 to 1000
8,CN(C)Cc1ccc(-c2cnc(N)c(-c3nnnn3-c3cccc(F)c3F)c2)cn1 [I-A-154],100 to 1000
9,Nc1ncc(-c2cccc(F)c2F)cc1-c1nnnn1-c1cccc(F)c1F [I-A-301],100 to 1000
10,Nc1ncc(-c2ccc(F)c(Cl)c2)cc1-c1nncn1-c1cccc(F)c1F [I-A-111],100 to 1000
11,N#CCC(=O)Nc1ccc(-c2cnc(N)c(-c3nnnn3-c3cccc(F)c3F)c2)cc1 [I-A-334],≤ 100
12,Nc1ncc(-c2ccc(CN3CCCC3=O)cc2)cc1-c1nnnn1-c1cccc(F)c1F [I-A-203],≤ 100
13,Nc1ncc(-c2ccsc2)cc1-c1nncn1-c1cccc(Cl)c1Cl [I-A-70],100 to 1000
14,Nc1ncc(-c2cccc(C(F)(F)F)c2)cc1-c1nnnn1-c1cccc(F)c1F [I-A-215],100 to 1000
15,Nc1ncc(-c2ccc(C3CCOC(=O)N3)cc2)cc1-c1nnnn1-c1cccc(F)c1F (stereo not drawn) [I-A-325],≤ 100
16,C[C@H](c1ccc(-c2cnc(N)c(-c3nnnn3-c3cccc(F)c3F)c2)cc1)N(C)C [I-A-152],≤ 100
17,Nc1ncc(-c2ccnc(F)c2)cc1-c1nnnn1-c1cccc(F)c1F [I-A-319],100 to 1000
18,Nc1ncc(-c2cccc(C(F)(F)F)c2)cc1-c1nncn1-c1cccc(F)c1F [I-A-116],100 to 1000
19,CC(=O)c1cccc(-c2cnc(N)c(-c3nncn3-c3cccc(F)c3F)n2)c1 [I-A-29],100 to 1000
20,CC(C)c1ccc(-c2cnc(N)c(-c3nnnn3-c3cccc(F)c3F)c2)cc1 [I-A-237],100 to 1000
21,N#Cc1cc(-c2cnc(N)c(-c3nnnn3-c3cccc(F)c3F)c2)ccc1N1CCCC1 [I-A-336],100 to 1000
22,Nc1ncc(-c2ccc(CN3CC4CC3CO4)cc2)cc1-c1nnnn1-c1cccc(F)c1F (stereo not drawn) [I-A-265],≤ 100
23,Nc1ncc(-c2ccc(N3CC(=O)NC3=O)cc2)cc1-c1nnnn1-c1cccc(F)c1F [I-A-256],≤ 100

# The next lines start with the values.
row,Ki [nM],Structure (SMILES)
1,100 to 1000,Nc1ncc(-c2ccc(CN3CCCC3)cc2)cc1-n1nnnc1-c1cccc(F)c1F [I-E-4]
2,≤ 100,Nc1ncc(-c2cnn(C3CCN(C(=O)N4CCCC4)CC3)c2)cc1-c1nnnn1-c1cccc(Cl)c1F [I-A-443]
3,≤ 100,CC(=O)N1CC=C(c2cnc(N)c(-c3nnnn3-c3cccc(F)c3F)c2)CC1 [I-A-510]
4,100 to 1000,Nc1ncc(-c2csc(C3CCNCC3)c2)nc1-c1nnnn1-c1cccc(F)c1F [I-A-654]
5,100 to 1000,CN(C)Cc1ccc(-c2cnc(N)c(-c3nnnn3-c3cc(F)cc(F)c3Cl)c2)cc1 [I-A-605]
6,≤ 100,Nc1ncc(C2=CCN(C(=O)C3CCOC3)CC2)cc1-c1nnnn1-c1cccc(F)c1F (stereo not drawn) [I-A-422]
7,≤ 100,Nc1ncc(-c2cc3c(s2)CCNCC3)cc1-c1nnnn1-c1cccc(Cl)c1Cl [I-A-431]
8,≤ 100,Nc1ncc(-c2cnn([C@@H]3CCCNC3)c2)cc1-c1nnnn1-c1cccc(F)c1F [I-A-417]
9,100 to 1000,CN(C)Cc1ccc(-c2cnc(N)c(-c3nnnn3-c3cccc(F)c3Cl)c2)cc1 [I-A-387]
10,100 to 1000,Cc1nnc(-c2cc(-c3ccc(CN(C)C)cc3)cnc2N)n1-c1cccc(F)c1Cl [I-A-389]
11,≤ 100,Nc1ncc(C2=CCN(C(=O)[C@H]3CCC(=O)N3)CC2)cc1-c1nnnn1-c1cccc(F)c1F [I-A-657]
12,≤ 100,CC(C)CN1CCC(n2cc(-c3cnc(N)c(-c4nnnn4-c4cccc(Cl)c4F)c3)cn2)CC1 [I-A-475]
13,≤ 100,CC1(C)CC(C(=O)N2CC=C(c3cnc(N)c(-c4nnnn4-c4cccc(F)c4F)c3)CC2)CCO1 (stereo not drawn) [I-A-515]
14,100 to 1000,CC(=O)Nc1cccc(-c2cnc(N)c(-c3nnnn3-c3c(F)cccc3Cl)c2)c1 [I-A-612]
15,≤ 100,COCCN1CCC(n2cc(-c3cnc(N)c(-c4nnnn4-c4cccc(Cl)c4F)c3)cn2)CC1 [I-A-477]
16,≤ 100,CN1CCN(Cc2ccc(-c3cnc(N)c(-c4nc5cnccc5n4-c4cccc(F)c4F)c3)cc2)CC1 [I-D-5]
17,≤ 100,Nc1ncc(-c2cccnc2)cc1-c1nc2cnccc2n1-c1cccc(F)c1F [I-D-1]
18,≤ 100,Nc1ncc(-c2cnn(C3CCNCC3)c2)cc1-c1nc2cccnc2n1-c1cccc(F)c1F [I-D-7]
19,100 to 1000,Cc1nn(C2CCNCC2)c(C)c1-c1cnc(N)c(-c2nnnn2-c2cccc(Cl)c2F)c1 [I-A-479]

row,Ki [nM],Structure (SMILES)
1,≤ 100,CC(C)N1CCC(n2cc(-c3cnc(N)c(-c4nnnn4-c4cccc(F)c4F)c3)cn2)CC1 [I-A-448]
2,≤ 100,Nc1ncc(-c2cnn(C3CCNCC3)c2)cc1-c1nncn1-c1cccc(Cl)c1F [I-A-438]
3,≤ 100,Cn1cc(-c2cccc(Cl)c2Cl)c(-c2cc(-c3cnn(C4CCNCC4)c3)cnc2N)n1 [I-B-22]
4,≤ 100,Nc1ncc(-c2ccc(CN3CCCC3)c(O)c2)cc1-c1nnnn1-c1cccc(F)c1F [I-A-391]
5,100 to 1000,Cc1c(Cl)cccc1-n1nnnc1-c1cc(-c2cccnc2)cnc1N [I-A-551]
6,≤ 100,CC(=O)N1CCC(n2cc(-c3cnc(N)c(-c4nnnn4-c4cccc(F)c4F)c3)cn2)CC1 [I-A-455]
7,≤ 100,Nc1ncc(-c2cc3c(s2)CCNCC3)nc1-c1nnnn1-c1cccc(F)c1F [I-A-653]
8,≤ 100,CN(C)CCn1cc(-c2cnc(N)c(-c3nc4cnccc4n3-c3cccc(F)c3F)c2)cn1 [I-D-9]
9,100 to 1000,CC(=O)Nc1ccc(-c2cnc(N)c(-c3nnnn3-c3cccc(F)c3C)c2)cc1 [I-A-574]
10,100 to 1000,Nc1ncc(-c2cccnc2)cc1-c1nnnn1-c1c(F)cccc1Cl [I-A-617]
11,≤ 100,CN1CCN(c2ccc(-c3cnc(N)c(-c4nnsc4-c4cccc(Cl)c4Cl)c3)cc2)CC1 [I-C-3]
12,100 to 1000,Nc1ncc(C2=CCCN(C(=O)C(F)(F)F)CC2)cc1-c1nnnn1-c1cccc(F)c1F [I-A-647]
13,100 to 1000,Nc1ncc(-c2cn[nH]c2)cc1-c1nncn1-c1cccc(Cl)c1F [I-A-439]
14,100 to 1000,Nc1ncc(-c2ccc(CN3CCCC3)cc2)cc1-c1nnnn1-c1cc(Cl)cc(Cl)c1 [I-A-597]
15,100 to 1000,CC(=O)Nc1ccc(-c2cnc(N)c(-c3nnnn3-c3cccc(Cl)c3C)c2)cc1 [I-A-575]
16,100 to 1000,Cc1nnc(-c2cnc(N)c(-c3nnnn3-c3cccc(F)c3F)c2)s1 [I-A-494]
17,≤ 100,Nc1ncc(-c2cc3c(s2)CNCC3)nc1-c1nnnn1-c1cccc(Cl)c1F [I-A-542]
18,100 to 1000,CC(=O)Nc1cccc(-c2cnc(N)c(-c3nnnn3-c3c(F)ccc(F)c3Cl)c2)c1 [I-A-613]
19,≤ 100,Nc1ncc(-c2ccn(CCN3CCCC3)c2)cc1-c1nnnn1-c1cccc(F)c1F [I-A-466]
